Measurements reported in patent publication US5977386A, “6-thio-substituted paclitaxels” (Bristol-Myers Squibb Company, priority 1997, dated 1999).
Where two headings read alike, the source gives them in different places.

Legend:
[1] = system: HCT-116 human colon carcinoma cells; assay: MTS cytotoxicity assay (72 h exposure); format: cell-based
Description: Cytoxicity was assessed in HCT-116 human colon carcinoma cells by MTS (3-(4,5-dimethylthiazol-2-yl)-5-(3-carboxymethoxyphenyl)-2-(4-sulphenyl)-2H-tetrazolium, inner salt) assay as reported in T. L. Riss, et. al., "Comparison of MTT, XTT, and a novel tetrazolium compound MTS for in vitro proliferation and chemosensitivity assays.," Mol. Biol. Cell 3 (Suppl.):184a, 1992. Cells were plated at 4,000 cell/well in 96 well microtiter plates and 24 hours later drugs were added and serial diluted. The cells were incubated at 37° for 72 hours at which time the tetrazolium dye, MTS at 333 μg/ml (final concentration), in combination with the electron coupling agent phenazine methosulfate at 25 μM (final concentration) was added. A dehydrogenase enzyme in live cells reduces the MTS to a form that absorbs light at […] which can be quantitated spectrophotometrically. The greater the absorbance the greater the number of live cells. The results are expressed as an IC50, which is the drug concentration required to inhibit cell proliferation (i.e. absorbance at 450 nm) to 50% of that of untreated control cells. The IC50 values for compounds evaluated in this assay are evaluated in Table I.
^1 Cytotoxicity was determined after a 72 h exposure by MTS assay.

[2] = system: M5076 murine sarcoma; assay: sc M5076 murine sarcoma model, tumor growth delay; format: in vivo; details: sc M5076, iv on days 1, 3, 5, 7, and 9 post-implant, at optimal dose
Description: M5076: Taxane derivatives were tested in the M5076 murine sarcoma model using the general materials and methods described by Rose, W. C. in Anticancer Research 6: 557-562, 1986, for subcutaneous M5076 implants, with the following modifications: treatments were administered intravenously on Days 1, 3, 5, 7, and 9 post-tumor implant using eight mice per treatment and untreated control group. Activity was determined based on an increase in lifespan (as described in the preceding reference) of […], and, in particular, on a delay in tumor growth equivalent to at least 1 gross log cell kill (LCK). The latter was calculated as described in Rose, W. C. and Basler, G. A. in In Vivo 4: 391-396, 1990.
(§1) ^a Optimal dose (mg/kg/inj) if active, otherwise, maximal tolerated
(§2) dose (MTD) or highest dose tested.

[3] = system: M109 lung carcinoma; assay: Mice M109 Model (In-Vivo), ip M109 lung carcinoma, median survival; parameters: species or system mouse; details: ip M109, Balb/c×DBA/2 F1 mice, ip injections days 5 and 8 post-implant, at optimal dose
Description: Balb/c×DBA/2 F1 hybrid mice were implanted intraperitoneally, as described by William Rose in Evaluation of Madison 109 Lung Carcinoma as a Model for Screening Antitumor Drugs, Cancer Treatment Reports, 65, No. 3-4 (1981), with 0.5 mL of a 2% (w/v) brei of M109 lung carcinoma.
Mice were treated with compounds under study by receiving intraperitoneal injections of various doses on days 5 and 8 post-implant. Mice were followed daily for survival until approximately 75 days post-tumor implant. One group of mice per experiment remained untreated and served as the control group.
Median survival times of compound-treated (T) mice were compared to the median survival time of the control (C) mice. The ratio of the two values for each compound-treated group of mice was multiplied by 100 and expressed as a percentage (i.e. % T/C) in the following Table II for representative compounds.
as §1, §2

[4] = Homo sapiens, HCT-116, 72 h, read-out: Cytotoxicity Assay IC50 against HCT 116 Human colon tumor cell line
[5] = Homo sapiens, HCT-116, read-out: Cytotoxicity Assay IC50 against HCT 116 Human colon tumor cell line

Q: For `CC(=O)O[C@H]1C(=O)[C@]2(C)C[C@@H]([S+](C)[O-])[C@H]3OC[C@@]3(OC(C)=O)[C@H]2[C@H](OC(=O)c2ccccc2)[C@]2(O)C[C@H](OC(=O)[C@H](O)[C@@H](NC(=O)c3ccccc3)c3ccccc3)C(C)=C1C2(C)C` (single isomer, unassigned) [Compound 19a, 7-deoxy-6β-methyl sulfoxide-paclitaxel], which IC50 ([1]; 4320 min, read-out: Cytotoxicity Assay IC50 against HCT 116 Human colon tumor cell line) is on record?
A: Its IC50 is > 111 nM.

Q: How did the IC50 [1, 4] turn out when `CC(=O)O[C@H]1C(=O)[C@]2(C)C[C@@H]([S+](C)[O-])[C@H]3OC[C@@]3(OC(C)=O)[C@H]2[C@H](OC(=O)c2ccccc2)[C@]2(O)C[C@H](OC(=O)[C@H](O)[C@@H](NC(=O)OC(C)(C)C)c3ccccc3)C(C)=C1C2(C)C` (single isomer, unassigned) [Compound 26, 3'-NH-Boc-7-deoxy-6b-methylsulfoxidepaclitaxel] was run?
A: Its IC50 is 0.66 nM.

Q: `CC(=O)O[C@H]1C(=O)[C@]2(C)C[C@@H]([S+]([O-])CC#N)[C@H]3OC[C@@]3(OC(C)=O)[C@H]2[C@H](OC(=O)c2ccccc2)[C@]2(O)C[C@H](OC(=O)[C@H](O)[C@@H](NC(=O)c3ccccc3)c3ccccc3)C(C)=C1C2(C)C` (single isomer, unassigned) [Compound 38, 6b-cyanomethylsulfoxo-7-deoxypaclitaxel] was tested. Which IC50 [1, 4] did it give?
A: Its IC50 is 28 nM.

Q: What about the “Maximum T-C in LCK (gross log cell kill)” value [2] of the same molecule?
A: The value was 0 LCK.

Q: How did the IC50 [1, 4] turn out when `CS[C@@H]1C[C@@]2(C)C(=O)[C@H](OC(C)=O)C3=C(C)[C@@H](OC(=O)[C@H](O)[C@@H](NC(=O)c4ccccc4)c4ccccc4)C[C@@](O)([C@@H](OC(=O)c4ccccc4)[C@@H]2[C@]2(OC(C)=O)CO[C@H]12)C3(C)C` [Compound 9, 7-deoxy-6β-thiomethylpaclitaxel] was run?
A: Its IC50 is 1.1 nM.

Q: And the “Maximum T-C in LCK (gross log cell kill)” value [2]?
A: The value was 1.1 LCK.

Q: How did the IC50 [1, 4] turn out when `CC(=O)O[C@H]1C(=O)[C@]2(C)C[C@@H](SC(C)=O)[C@H]3OC[C@@]3(OC(C)=O)[C@H]2[C@H](OC(=O)c2ccccc2)[C@]2(O)C[C@H](OC(=O)[C@H](O)[C@@H](NC(=O)c3ccccc3)c3ccccc3)C(C)=C1C2(C)C` [Compound 11, 7-deoxy-6β-thioacetoxypaclitaxel] was run?
A: The IC50 was 1.84 nM.

Q: And the “Maximum T-C in LCK (gross log cell kill)” value [2]?
A: The value was 0.5 LCK.

Q: With `CC(=O)O[C@H]1C(=O)[C@]2(C)C[C@@H](S)[C@H]3OC[C@@]3(OC(C)=O)[C@H]2[C@H](OC(=O)c2ccccc2)[C@]2(O)C[C@H](OC(=O)[C@H](O)[C@@H](NC(=O)c3ccccc3)c3ccccc3)C(C)=C1C2(C)C` [Compound 13, 7-deoxy-6β-thio-paclitaxel] as the molecule, how does the IC50 [1, 5] read?
A: The IC50 was 26.1 nM.

Q: And the “Maximum T-C in LCK (gross log cell kill)” value [2]?
A: The value was 0.5 LCK.

Q: Which IC50 [1, 5] does the source give for `CC(=O)O[C@H]1C(=O)[C@]2(C)C[C@@H](SCCO)[C@H]3OC[C@@]3(OC(C)=O)[C@H]2[C@H](OC(=O)c2ccccc2)[C@]2(O)C[C@H](OC(=O)[C@H](O)[C@@H](NC(=O)c3ccccc3)c3ccccc3)C(C)=C1C2(C)C` [Compound 15, 7-deoxy-6β-(2-hydroxyethyl)thio-paclitaxel] here?
A: Its IC50 is 1.8 nM.

Q: And the “Maximum T-C in LCK (gross log cell kill)” value [2]?
A: The value was 0.3 LCK.

Q: What does the source list for `CS[C@@H]1C[C@@]2(C)C(=O)[C@H](OC(C)=O)C3=C(C)[C@@H](OC(=O)[C@H](O)[C@@H](NC(=O)OC(C)(C)C)c4ccccc4)C[C@@](O)([C@@H](OC(=O)c4ccccc4)[C@@H]2[C@]2(OC(C)=O)CO[C@H]12)C3(C)C` [Compound 24, 3'-NH-Boc-7-deoxy-6b-thiomethylpaclitaxel]?
A: IC50 [1, 4]: 0.2 nM; Maximum T-C in LCK (gross log cell kill) [2]: 1.2 LCK

Q: What does the source list for `CCOC(=O)N[C@@H](c1ccccc1)[C@@H](O)C(=O)O[C@H]1C[C@@]2(O)[C@@H](OC(=O)c3ccccc3)[C@@H]3[C@]4(OC(C)=O)CO[C@@H]4[C@H](SC)C[C@@]3(C)C(=O)[C@H](OC(C)=O)C(=C1C)C2(C)C` [Compound 28, 3'-NH-ethylcarbonate-7-deoxy-6b-thiomethylpaclitaxel]?
A: IC50 [1, 4]: 0.7 nM; Maximum T-C in LCK (gross log cell kill) [2]: 1.1 LCK

Q: Which IC50 [1, 4] does the source give for `CCS[C@@H]1C[C@@]2(C)C(=O)[C@H](OC(C)=O)C3=C(C)[C@@H](OC(=O)[C@H](O)[C@@H](NC(=O)c4ccccc4)c4ccccc4)C[C@@](O)([C@@H](OC(=O)c4ccccc4)[C@@H]2[C@]2(OC(C)=O)CO[C@H]12)C3(C)C` [Compound 30, 7-deoxy-6b-thioethylpaclitaxel] here?
A: Its IC50 is 0.9 nM.

Q: And the “Maximum T-C in LCK (gross log cell kill)” value [2]?
A: The value was 0.4 LCK.

Q: How did the IC50 [1, 4] turn out when `CC(=O)O[C@H]1C(=O)[C@]2(C)C[C@@H](SCc3ccccc3)[C@H]3OC[C@@]3(OC(C)=O)[C@H]2[C@H](OC(=O)c2ccccc2)[C@]2(O)C[C@H](OC(=O)[C@H](O)[C@@H](NC(=O)c3ccccc3)c3ccccc3)C(C)=C1C2(C)C` [Compound 32, 6-b-thiobenzyl-7-deoxypaclitaxel] was run?
A: Its IC50 is 5.27 nM.

Q: `CC(=O)CS[C@@H]1C[C@@]2(C)C(=O)[C@H](OC(C)=O)C3=C(C)[C@@H](OC(=O)[C@H](O)[C@@H](NC(=O)c4ccccc4)c4ccccc4)C[C@@](O)([C@@H](OC(=O)c4ccccc4)[C@@H]2[C@]2(OC(C)=O)CO[C@H]12)C3(C)C` [Compound 34, 6-b-thiomethyl methyl keto-7-deoxytaclitaxel] was tested. Which IC50 [1, 4] did it give?
A: Its IC50 is 1.2 nM.

Q: And the “Maximum % T/C (ratio of median survival times treated/control x 100)” value [3]?
A: The value was 168%.

Q: With `CC(=O)O[C@H]1C(=O)[C@]2(C)C[C@@H](SCC#N)[C@H]3OC[C@@]3(OC(C)=O)[C@H]2[C@H](OC(=O)c2ccccc2)[C@]2(O)C[C@H](OC(=O)[C@H](O)[C@@H](NC(=O)c3ccccc3)c3ccccc3)C(C)=C1C2(C)C` [Compound 36, 6b-thioacetonitrile-7-deoxypaclitaxel] as the molecule, how does the IC50 [1, 4] read?
A: The IC50 was 4.4 nM.

Q: And the “Maximum T-C in LCK (gross log cell kill)” value [2]?
A: Its value is 1.1 LCK.

Q: Which IC50 [1, 4] does the source give for `COC(=O)CS[C@@H]1C[C@@]2(C)C(=O)[C@H](OC(C)=O)C3=C(C)[C@@H](OC(=O)[C@H](O)[C@@H](NC(=O)c4ccccc4)c4ccccc4)C[C@@](O)([C@@H](OC(=O)c4ccccc4)[C@@H]2[C@]2(OC(C)=O)CO[C@H]12)C3(C)C` [Compound 40, 6b-thioacetyl methyl ester-7-deoxypaclitaxel] here?
A: Its IC50 is 2.5 nM.

Q: What about the “Maximum % T/C (ratio of median survival times treated/control x 100)” value [3] of the same molecule?
A: The value was 103%.

Q: Which results are given for `C=CCOC(=O)CS[C@@H]1C[C@@]2(C)C(=O)[C@H](OC(C)=O)C3=C(C)[C@@H](OC(=O)[C@H](O)[C@@H](NC(=O)c4ccccc4)c4ccccc4)C[C@@](O)([C@@H](OC(=O)c4ccccc4)[C@@H]2[C@]2(OC(C)=O)CO[C@H]12)C3(C)C` [Compound 42, 7-deoxy-6b-allyl thioacetatepaclitaxel]?
A: IC50 [1, 4]: 9 nM; Maximum % T/C (ratio of median survival times treated/control x 100) [3]: 106%

Q: How did the IC50 [1, 4] turn out when `CC(=O)O[C@H]1C(=O)[C@]2(C)C[C@@H](SCC(N)=O)[C@H]3OC[C@@]3(OC(C)=O)[C@H]2[C@H](OC(=O)c2ccccc2)[C@]2(O)C[C@H](OC(=O)[C@H](O)[C@@H](NC(=O)c3ccccc3)c3ccccc3)C(C)=C1C2(C)C` [Compound 44, 7-deoxy-6b-thioacetamidepaclitaxel] was run?
A: The IC50 was 11 nM.

Q: What about the “Maximum T-C in LCK (gross log cell kill)” value [2] of the same molecule?
A: The value was 0 LCK.

Q: Which IC50 [1, 4] does the source give for `CSCS[C@@H]1C[C@@]2(C)C(=O)[C@H](OC(C)=O)C3=C(C)[C@@H](OC(=O)[C@H](O)[C@@H](NC(=O)c4ccccc4)c4ccccc4)C[C@@](O)([C@@H](OC(=O)c4ccccc4)[C@@H]2[C@]2(OC(C)=O)CO[C@H]12)C3(C)C` [Compound 46, 6-b-methylthiomethylthio ether-7-deoxy paclitaxel] here?
A: The IC50 was 3.5 nM.

Q: And the “Maximum T-C in LCK (gross log cell kill)” value [2]?
A: Its value is 0 LCK.

Q: With `COCS[C@@H]1C[C@@]2(C)C(=O)[C@H](OC(C)=O)C3=C(C)[C@@H](OC(=O)[C@H](O)[C@@H](NC(=O)c4ccccc4)c4ccccc4)C[C@@](O)([C@@H](OC(=O)c4ccccc4)[C@@H]2[C@]2(OC(C)=O)CO[C@H]12)C3(C)C` [Compound 48] as the molecule, how does the IC50 [1, 4] read?
A: The IC50 was 1.9 nM.

Q: What about the “Maximum T-C in LCK (gross log cell kill)” value [2] of the same molecule?
A: Its value is 0.2 LCK.

Q: For `C=CS[C@@H]1C[C@@]2(C)C(=O)[C@H](OC(C)=O)C3=C(C)[C@@H](OC(=O)[C@H](O)[C@@H](NC(=O)c4ccccc4)c4ccccc4)C[C@@](O)([C@@H](OC(=O)c4ccccc4)[C@@H]2[C@]2(OC(C)=O)CO[C@H]12)C3(C)C` [Compound 50, 6b-thioethenyl-7-deoxypaclitaxel], which IC50 [1, 4] is on record?
A: Its IC50 is 0.3 nM.

Q: And the “Maximum T-C in LCK (gross log cell kill)” value [2]?
A: Its value is 1.0 LCK.
